The text below walks through data of ChEMBL document CHEMBL2073787, “Isolation of a family of organic anion transporters from human liver and kidney” (Biochem Biophys Res Commun, 2001).

What all share (type): functional, cell-based
Data set [1] deals with T1, Solute carrier family 22 member 7 (Homo sapiens, UniProt Q9Y694).
T1 sequence (Q9Y694 whole entry): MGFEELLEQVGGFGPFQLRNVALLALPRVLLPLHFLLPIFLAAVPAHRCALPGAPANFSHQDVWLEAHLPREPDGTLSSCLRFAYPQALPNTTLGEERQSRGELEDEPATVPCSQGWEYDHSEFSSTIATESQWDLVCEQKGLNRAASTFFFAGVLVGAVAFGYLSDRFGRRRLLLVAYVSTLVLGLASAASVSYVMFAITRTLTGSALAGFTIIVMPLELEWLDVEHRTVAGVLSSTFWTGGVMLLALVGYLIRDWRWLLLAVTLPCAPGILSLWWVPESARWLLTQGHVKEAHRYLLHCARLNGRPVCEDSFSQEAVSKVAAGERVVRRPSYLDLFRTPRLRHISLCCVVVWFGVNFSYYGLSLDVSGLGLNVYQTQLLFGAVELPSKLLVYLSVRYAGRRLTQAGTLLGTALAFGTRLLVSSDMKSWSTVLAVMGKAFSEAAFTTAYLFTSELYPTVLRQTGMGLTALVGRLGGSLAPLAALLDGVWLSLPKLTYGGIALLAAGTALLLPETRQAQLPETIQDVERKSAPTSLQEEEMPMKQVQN
The experiment in a line: TP_TRANSPORTER: inhibition of PAH uptake (alpha-KG: 500 uM) in OAT2-expressing EcR293 cells. Particulars: ecr293, 500 µM.

The target in data set [2] is T1, Solute carrier family 22 member 7. The data set can be described thus: TP_TRANSPORTER: uptake in OAT2-expressing EcR293 cells.
For data set [3] the target is unchanged. The experiment in a line: TP_TRANSPORTER: inhibition of PAH uptake (BSP: 100 uM) in OAT2-expressing EcR293 cells. Particulars: ecr293, 100 µM.

As for `O=C(O)CCC(=O)C(=O)O` [ALPHA-KETOGLUTARIC ACID], the Activity entry in data set [1] is “is not an inhibitor [-]”; in data set [2] it was “substrate [+]”.

Take `CN(Cc1cnc2nc(N)nc(N)c2n1)c1ccc(C(=O)N[C@@H](CCC(=O)O)C(=O)O)cc1` [METHOTREXATE]: the Activity result in data set [2] was “substrate [+]”.

Regarding `O=C1OC(c2ccc(O)c(S(=O)(=O)[O-])c2)(c2ccc(O)c(S(=O)(=O)[O-])c2)c2c(Br)c(Br)c(Br)c(Br)c21.[Na+].[Na+]` [SULFOBROMOPHTHALEIN SODIUM], the Activity result in data set [3] was “inhibitor [+]”.

In the case of `Nc1ccc(C(=O)NCC(=O)O)cc1` [AMINOHIPPURIC ACID], the Activity entry in data set [2] was “substrate [+]”.
